Assay results published in patent US9107852B2, “Uses of agonists of delta opioid receptor in cosmetic and dermocosmetic field” (Induchem Holding AG, priority 2012, dated 2015).
Ends that are not written are not given here.

Test system: reconstructed human epidermis (RHE)
Assay: Gene expression (RT-qPCR array) in inflammatory reconstructed human epidermis
Assay type: cell-based
Settings: with cytokines and peptide 0.3 PPM; versus non stimulated RHE
Description: Transcriptional effects of a peptide (YPLDLF, SEQ ID No 1) on gene expression were researched on a reconstructed human epidermis (RHE) model under inflammatory conditions. The inflammation of the RHE was induced using a mix of cytokines (IL-17+OSM+TNF-α). The effects on gene expression were evaluated using RT-qPCR technology. Extracted mRNA was analyzed on a customized PCR array designed by the study sponsor and containing 64 target genes (including 2 housekeeping genes) selected for their role in keratinocyte differentiation, or their involvement in cell junctions and lipid synthesis, or their relation to opioid receptor delta (DOR).
Reconstructed human epidermis (RHE) of 11 days old was prepared according to a derived method described by Poumay et al. (2004). These RHE were cultivated at 37° C. and 5% of CO2 in a specific maintenance medium.
The RHE were cultured in assay medium containing or not (controls) the test compounds or the reference […] inhibitor I at 10 μM) and pre-incubated for 24 hours. Epidermises were then stimulated or not (non-stimulated control) with a cytokine mix (IL-17+OSM+TNF-α) at 3 ng/ml and the epidermises were incubated for 24 hours. All experimental conditions were performed in n=2.
At the end of incubation, the supernatants were collected and the RHE were washed in phosphate buffered saline solution (PBS) and immediately dry-frozen at −80° C.
The expression of markers was analyzed using RT-qPCR method on mRNA extracted from RHE for each treatment (before RNA extraction the replicates were pooled).
Analysis of gene expression was performed in n=2 using a customized PCR array dedicated to research and adapted to ‘screening’ format.
Total RNA was extracted from each sample using TriPure Isolation Reagent® according to the supplier's instructions. The amount and quality of RNA were evaluated using a lab-on-a-chip Bioanalyzer (Agilent technologies). The RNA quality controls are presented in appendix. Potential contaminant traces of genomic DNA were removed using the DNAfree system (Ambion). The reverse-transcription of mRNA was conducted in presence of oligo(dT) and Superscript II reverse-transcriptase. Quantification of cDNA was performed using Nanovue (GE Healthcare) and adjustment of cDNA at 10 ng/μl.
The PCRs (Polymerase Chain Reactions) were performed using the <<LightCycler®>> system (Roche Molecular System Inc.) according to supplier's instructions. This system allows rapid and powerful PCRs, after determining analysis conditions of the test primers.
The reaction mix (10 μl final) was added as follows: • 2.5 μl of cDNA at 10 ng/μl, • primers forward and reverse, • reagent mix containing taq DNA polymerase, SYBR Green I and MgCl2. Data Management of Quantitative PCR
The incorporation of fluorescence in amplified DNA was continuously measured during the PCR cycles. […] The value selected for RE calculations is the “output point” (Ct) of the fluorescence curve. For a considered marker, the highest is the cycle number; the lowest is the mRNA quantity. The RE value was expressed in arbitrary units (AU) according to the formula: (½^number of cycles)×10^6.

YPLDLF [YPLDLF]
Relative expression of ACSS2: 113 % Control (Mean HK)
Relative expression of ADRB2: 259 % Control (Mean HK)
Relative expression of BIRC5: 88 % Control (Mean HK)
Relative expression of CALML5 (Calmodulin-like 5): 72 % Control (Mean HK)
Relative expression of CASP3: 104 % Control (Mean HK)
Relative expression of CDH1 (E-cadherin): 126 % Control (Mean HK)
Relative expression of CDSN (Corneodesmosin): 161 % Control (Mean HK)
Relative expression of CLDN1 (Claudin 1): 128 % Control (Mean HK)
Relative expression of CLDN2 (Claudin 2): 121 % Control (Mean HK)
Relative expression of CREB1: 109 % Control (Mean HK)
Relative expression of CRNN (Cornulin): 71 % Control (Mean HK)
Relative expression of CTNNA1: 117 % Control (Mean HK)
Relative expression of CTNNB1: 134 % Control (Mean HK)
Relative expression of DSG1 (Desmoglein 1): 98 % Control (Mean HK)
Relative expression of DSP (Desmoplakin): 107 % Control (Mean HK)
Relative expression of DST (Dystonin): 93 % Control (Mean HK)
Relative expression of EGFR: 141 % Control (Mean HK)
Relative expression of EPPK1 (Epiplakin 1): 82 % Control (Mean HK)
Relative expression of EVPL (Envoplakin): 132 % Control (Mean HK)
Relative expression of F11R: 115 % Control (Mean HK)
Relative expression of FLG (Filaggrin): 117 % Control (Mean HK)
Relative expression of GAPDH: 116 % Control (Mean HK)
Relative expression of GBA: 110 % Control (Mean HK)
Relative expression of GJA1: 111 % Control (Mean HK)
Relative expression of GJA5: 90 % Control (Mean HK)
Relative expression of GJB2: 131 % Control (Mean HK)
Relative expression of GJB3: 111 % Control (Mean HK)
Relative expression of GJB4: 77 % Control (Mean HK)
Relative expression of GJB5: 122 % Control (Mean HK)
Relative expression of GJB6: 203 % Control (Mean HK)
Relative expression of GJC1: 126 % Control (Mean HK)
Relative expression of GJD3: 487 % Control (Mean HK)
Relative expression of GNAS: 130 % Control (Mean HK)
Relative expression of ITGA2: 108 % Control (Mean HK)
Relative expression of ITGAV: 103 % Control (Mean HK)
Relative expression of IVL (Involucrin): 119 % Control (Mean HK)
Relative expression of KRT1 (Keratin 1): 140 % Control (Mean HK)
Relative expression of KRT10 (Keratin 10): 145 % Control (Mean HK)
Relative expression of KRT19 (Keratin 19): 134 % Control (Mean HK)
Relative expression of LOR (Loricrin): 121 % Control (Mean HK)
Relative expression of MAPK1: 108 % Control (Mean HK)
Relative expression of MAPK14: 109 % Control (Mean HK)
Relative expression of OCLN (Occludin): 131 % Control (Mean HK)
Relative expression of ODC1: 110 % Control (Mean HK)
Relative expression of OPRD1 (Opioid receptor, delta 1): 101 % Control (Mean HK)
Relative expression of PADI1: 105 % Control (Mean HK)
Relative expression of PANX1 (Pannexin 1): 133 % Control (Mean HK)
Relative expression of PTGS2: 119 % Control (Mean HK)
Relative expression of PVRL1: 131 % Control (Mean HK)
Relative expression of RPS28 (Ribosomal protein S28): 91 % Control (Mean HK)
Relative expression of SFN (Stratifin): 143 % Control (Mean HK)
Relative expression of SLC1A3: 100 % Control (Mean HK)
Relative expression of SMPD1: 87 % Control (Mean HK)
Relative expression of SPRR1A: 142 % Control (Mean HK)
Relative expression of SPRR1B: 127 % Control (Mean HK)
Relative expression of SPRR2A: 111 % Control (Mean HK)
Relative expression of SPTLC1: 120 % Control (Mean HK)
Relative expression of STAT3: 120 % Control (Mean HK)
Relative expression of SULT2B1: 173 % Control (Mean HK)
Relative expression of TGM1 (Transglutaminase 1): 108 % Control (Mean HK)
Relative expression of TJAP1: 81 % Control (Mean HK)
Relative expression of TJP1: 129 % Control (Mean HK)
Relative expression of UGCG: 117 % Control (Mean HK)
